# Measured values from ChEMBL document CHEMBL5241106, “Discovery of a Dual Tubulin and Poly(ADP-Ribose) Polymerase-1 Inhibitor by Structure-Based Pharmacophore Modeling, Virtual Screening, Molecular Docking, and Biological Evaluation” (J Med Chem, 2021).
# Calls of active or inactive are those of the source. No cut-off for these calls is given here.
# Experiments:
# HUVEC = experiment: […] of angiogenesis in human HUVEC cells assessed as inhibition of capillary tube formation incubated for 8 hrs by inverted microscopic analysis; type: functional, cell-based; conditions: dose 0.5-12.5 µM
# [1] = Toxicity in BALB/c mouse xenografted with human MDA-MB-231 cells assessed as effect on platelet count at 1 to 5 mg/kg, ip administered every 4 days for 7 times measured at 48 hrs post-last administration; type: organism-based; conditions: in vivo, 720 h, dose 1-5 mg/kg, time 30 day
# [2] = target: T1, Poly [ADP-ribose] polymerase 1 (Homo sapiens, UniProt P09874); experiment: Inhibition of PARP1 (unknown origin) using [3H]NAD+ as substrate incubated for 15 mins by scintillation counting analysis; conditions: read-out: IC50
# T1 sequence (P09874 whole entry): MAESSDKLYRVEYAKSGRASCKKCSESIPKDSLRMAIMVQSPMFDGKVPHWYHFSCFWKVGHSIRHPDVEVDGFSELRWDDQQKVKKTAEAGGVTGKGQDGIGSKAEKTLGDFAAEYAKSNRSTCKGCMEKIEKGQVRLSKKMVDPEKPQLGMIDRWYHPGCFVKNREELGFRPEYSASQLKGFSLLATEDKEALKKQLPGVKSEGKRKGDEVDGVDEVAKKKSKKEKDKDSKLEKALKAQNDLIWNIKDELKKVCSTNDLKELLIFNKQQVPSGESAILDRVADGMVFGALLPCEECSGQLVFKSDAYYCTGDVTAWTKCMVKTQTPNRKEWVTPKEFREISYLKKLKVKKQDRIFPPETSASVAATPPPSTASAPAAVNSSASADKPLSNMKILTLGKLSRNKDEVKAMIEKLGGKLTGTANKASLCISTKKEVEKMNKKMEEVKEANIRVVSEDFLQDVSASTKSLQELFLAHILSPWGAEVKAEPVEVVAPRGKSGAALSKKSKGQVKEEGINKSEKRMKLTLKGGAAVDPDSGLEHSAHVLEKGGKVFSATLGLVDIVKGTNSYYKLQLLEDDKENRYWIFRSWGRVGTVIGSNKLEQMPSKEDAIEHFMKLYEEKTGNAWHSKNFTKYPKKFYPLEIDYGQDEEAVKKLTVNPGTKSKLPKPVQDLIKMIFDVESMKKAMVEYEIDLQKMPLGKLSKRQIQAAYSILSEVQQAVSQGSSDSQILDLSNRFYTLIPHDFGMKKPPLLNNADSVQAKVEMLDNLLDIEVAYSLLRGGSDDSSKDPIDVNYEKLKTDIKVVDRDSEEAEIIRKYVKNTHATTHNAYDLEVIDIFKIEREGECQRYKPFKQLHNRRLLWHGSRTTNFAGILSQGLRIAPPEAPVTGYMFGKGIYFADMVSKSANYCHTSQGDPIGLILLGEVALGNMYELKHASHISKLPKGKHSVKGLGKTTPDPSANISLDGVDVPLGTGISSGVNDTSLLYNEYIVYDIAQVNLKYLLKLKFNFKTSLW
# MDA-MB-231 [3] = experiment: Inhibition of colony formation in human MDA-MB-231 cells at 2.5 uM measured after 10 days by crystal violet staining based analysis; type: functional; conditions: MDA-MB-231, 240 h, time 10 day
# [4] = Toxicity in BALB/c mouse xenografted with human MDA-MB-231 cells assessed as change in spleen morphological changes at 1 to 5 mg/kg, ip administered every 4 days for 7 times measured at 48 hrs post-last administration by H and E staining based fluorescence microscopic analysis; type: organism-based; conditions: in vivo, 720 h, dose 1-5 mg/kg, time 30 day
# [5] = Toxicity in BALB/c mouse xenografted with human MDA-MB-231 cells assessed as change in lung morphological changes at 1 to 5 mg/kg, ip administered every 4 days for 7 times measured at 48 hrs post-last administration by H and E staining based fluorescence microscopic analysis; type: organism-based; conditions: in vivo, 720 h, dose 1-5 mg/kg, time 30 day
# MDA-MB-231 [6] = experiment: Induction of apoptosis in human MDA-MB-231 cells assessed as necrotic cells at 12.5 uM incubated for 48 hrs by Annexin V-FITC/PI staining based flow cytometry (reference value: 1.86%); type: functional
# MDA-MB-231 [7] = experiment: Induction of cell cycle arrest in human MDA-MB-231 cells assessed as decrease in cyclin B1 expression at 0.5 to 12.5 uM incubated for 48 hrs by western blot analysis; type: functional, cell-based; conditions: dose 0.5-12.5 µM
# MDA-MB-231 [8] = experiment: Anticancer activity against human MDA-MB-231 cells xenografted in BALB/c mouse assessed as reduction in tumor volume at 5 mg/kg, ip administered for every 4 days for 7 times; type: functional, organism-based; conditions: time 28.0 day
# [9] = target: Epidermal growth factor receptor (Homo sapiens, UniProt P00533); experiment: Inhibition of EGFR (unknown origin)
# Epidermal growth factor receptor, sequence (P00533 whole entry): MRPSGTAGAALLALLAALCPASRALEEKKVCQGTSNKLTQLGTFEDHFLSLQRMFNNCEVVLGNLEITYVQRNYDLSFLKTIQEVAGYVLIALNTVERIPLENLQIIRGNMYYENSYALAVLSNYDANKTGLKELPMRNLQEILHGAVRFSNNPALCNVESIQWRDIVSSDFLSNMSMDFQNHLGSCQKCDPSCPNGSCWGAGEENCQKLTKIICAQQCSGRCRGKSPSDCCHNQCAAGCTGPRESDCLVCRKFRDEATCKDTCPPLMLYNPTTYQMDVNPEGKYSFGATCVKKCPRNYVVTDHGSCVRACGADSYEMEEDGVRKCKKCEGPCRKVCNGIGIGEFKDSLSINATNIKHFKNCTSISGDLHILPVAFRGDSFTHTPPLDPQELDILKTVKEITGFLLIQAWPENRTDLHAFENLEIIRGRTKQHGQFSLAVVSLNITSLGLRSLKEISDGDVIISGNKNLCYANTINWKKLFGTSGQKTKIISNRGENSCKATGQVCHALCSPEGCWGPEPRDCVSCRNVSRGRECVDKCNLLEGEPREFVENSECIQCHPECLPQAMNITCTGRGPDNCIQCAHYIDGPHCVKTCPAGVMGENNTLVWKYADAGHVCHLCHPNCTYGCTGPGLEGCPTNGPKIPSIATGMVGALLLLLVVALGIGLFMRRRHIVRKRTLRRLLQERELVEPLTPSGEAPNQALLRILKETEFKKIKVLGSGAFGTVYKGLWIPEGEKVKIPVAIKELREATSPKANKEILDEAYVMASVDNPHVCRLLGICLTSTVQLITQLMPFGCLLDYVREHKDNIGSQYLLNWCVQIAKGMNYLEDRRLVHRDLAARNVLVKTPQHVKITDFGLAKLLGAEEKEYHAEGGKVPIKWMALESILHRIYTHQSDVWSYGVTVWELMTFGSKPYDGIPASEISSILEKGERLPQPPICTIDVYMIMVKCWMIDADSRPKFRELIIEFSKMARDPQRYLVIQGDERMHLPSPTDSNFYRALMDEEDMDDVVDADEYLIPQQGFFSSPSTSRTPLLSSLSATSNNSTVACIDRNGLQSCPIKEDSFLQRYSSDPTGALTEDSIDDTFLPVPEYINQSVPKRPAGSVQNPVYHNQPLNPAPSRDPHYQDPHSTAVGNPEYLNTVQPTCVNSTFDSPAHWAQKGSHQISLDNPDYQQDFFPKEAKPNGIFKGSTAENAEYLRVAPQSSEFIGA
# MDA-MB-231 [10] = experiment: Induction of apoptosis in human MDA-MB-231 cells assessed as increase in cleaved PARP level at 0.5 to 12.5 uM incubated for 48 hrs by western blot analysis; type: functional, cell-based; conditions: dose 0.5-12.5 µM
# MDA-MB-231 [11] = experiment: Induction of apoptosis in human MDA-MB-231 cells assessed as viable cells at 0.5 uM incubated for 48 hrs by Annexin V-FITC/PI staining based flow cytometry (reference value: 91.4%); type: functional; conditions: read-out: Activity
# [12] = Toxicity in BALB/c mouse xenografted with human MDA-MB-231 cells assessed as increase in body weight at 1 to 5 mg/kg, ip administered every 4 days for 7 times; type: organism-based; conditions: in vivo, 672 h, dose 1-5 mg/kg, time 28 day
# MDA-MB-231 [13] = experiment: Induction of apoptosis in human MDA-MB-231 cells assessed as viable cells at 2.5 uM incubated for 48 hrs by Annexin V-FITC/PI staining based flow cytometry (reference value: 91.4%); type: functional; conditions: read-out: Activity
# SK-OV-3 = experiment: Cytotoxicity against human SK-OV-3 cells assessed as inhibition of cell growth incubated for 72 hrs by MTT assay; type: functional, cell-based; conditions: SK-OV-3, 72 h
# MDA-MB-231 [14] = experiment: Induction of apoptosis in human MDA-MB-231 cells assessed as late apoptotic cells at 12.5 uM incubated for 48 hrs by Annexin V-FITC/PI staining based flow cytometry (reference value: 5.06%); type: functional
# MDA-MB-231 [15] = experiment: Induction of cell cycle arrest in human MDA-MB-231 cells assessed as increase in p-cdc2 expression at 0.5 to 12.5 uM incubated for 48 hrs by Western blot analysis; type: functional, cell-based; conditions: dose 0.5-12.5 µM
# MDA-MB-231 [16] = experiment: Induction of apoptosis in human MDA-MB-231 cells assessed as late apoptotic cells at 0.5 uM incubated for 48 hrs by Annexin V-FITC/PI staining based flow cytometry (reference value: 5.06%); type: functional
# HepG2 = experiment: Cytotoxicity against human HepG2 cells assessed as inhibition of cell growth incubated for 72 hrs by MTT assay; type: functional, cell-based; conditions: HepG2, 72 h
# [17] = […] of angiogenesis in human HUVEC cells assessed as inhibition of capillary tube formation at 12.5 uM incubated for 8 hrs by inverted microscopic analysis; type: functional; set-up: scale not given: the % may be the effect or the level left
# [18] = Toxicity in BALB/c mouse xenografted with human MDA-MB-231 cells assessed as change in kidney morphological changes at 1 to 5 mg/kg, ip administered every 4 days for 7 times measured at 48 hrs post-last administration by H and E staining based fluorescence microscopic analysis; type: organism-based; conditions: in vivo, 720 h, dose 1-5 mg/kg, time 30 day
# [19] = Renal toxicity in BALB/c mouse xenografted with human MDA-MB-231 cells assessed as effect on blood urea nitrogen level at 1 to 5 mg/kg, ip administered every 4 days for 7 times measured at 48 hrs post-last administration; type: organism-based; conditions: in vivo, 720 h, dose 1-5 mg/kg, time 30 day
# HeLa = experiment: Cytotoxicity against human HeLa cells assessed as inhibition of cell growth incubated for 72 hrs by MTT assay; type: functional, cell-based
# [20] = Renal toxicity in BALB/c mouse xenografted with human MDA-MB-231 cells assessed as effect on blood creatinine level at 1 to 5 mg/kg, ip administered every 4 days for 7 times measured at 48 hrs post-last administration; type: organism-based; conditions: in vivo, 720 h, dose 1-5 mg/kg, time 30 day
# [21] = Hepatotoxicity in BALB/c mouse xenografted with human MDA-MB-231 cells assessed as effect on blood ALT level at 1 to 5 mg/kg, ip administered every 4 days for 7 times measured at 48 hrs post-last administration; type: toxicity, organism-based; conditions: in vivo, 720 h, dose 1-5 mg/kg, time 30 day
# [22] = target: T1, Poly [ADP-ribose] polymerase 1; experiment: Inhibition of PARP-1 in human MDA-MB-231 cells assessed as induction of double strand DNA breaks by measuring increase in gammaH2AX level at 2.5 to 12.5 uM incubated for 48 hrs by western blotting analysis; type: cell-based; conditions: dose 2.5-12.5 µM
smiles,measurement,setting,value
O=c1[nH]c(/C=C/c2cccc(F)c2)nc2ccccc12,Activity,HUVEC,Dose-Dependent Effect
same,Activity,[1],Non-Toxic
same,IC50,[2],0.48 µM
same,inhibition at 2.5 µM,MDA-MB-231 [3],100%
same,Activity,[4],Non-Toxic
same,Activity,[5],Non-Toxic
same,Activity,MDA-MB-231 [6],4.29%
same,Activity,MDA-MB-231 [7],Active
same,Activity,MDA-MB-231 [8],Active
same,IC50,[9],> 10 µM
same,Activity,MDA-MB-231 [10],Active
same,viability at 0.5 µM,MDA-MB-231 [11],90.6%
same,Activity,[12],Toxic
same,viability at 2.5 µM,MDA-MB-231 [13],90.2%
same,IC50,SK-OV-3,1.7 µM
same,Activity,MDA-MB-231 [14],8.97%
same,Activity,MDA-MB-231 [15],Active
same,Activity,MDA-MB-231 [16],6.39%
same,IC50,HepG2,0.9 µM
same,Activity,[17],100%
same,Activity,[18],Non-Toxic
same,Activity,[19],Non-Toxic
same,IC50,HeLa,1.5 µM
same,Activity,[20],Non-Toxic
same,Activity,[21],Non-Toxic
same,inhibition,[22],Active
